For 16 compounds, Kd results are on record in ChEMBL document CHEMBL4308907, “Pyrrolidinone-bearing methylated and halogenated benzenesulfonamides as inhibitors of carbonic anhydrases” (Bioorg Med Chem, 2019).

A value given as a limit tells only on which side of the number the result lay.

Assay [1] concerns the target Carbonic anhydrase 1 (Homo sapiens, UniProt P00915). Put plainly: Binding affinity to recombinant human CA1 by DSF-based fluorescence thermal shift assay.
In assay [2] the target is Carbonic anhydrase 2 (Homo sapiens, UniProt P00918). Put plainly: Binding affinity to recombinant human CA2 by DSF-based fluorescence thermal shift assay.
Assay [3] concerns the target Carbonic anhydrase 3 (Homo sapiens, UniProt P07451). Kind of assay: Binding affinity to recombinant N-terminal His6x-tagged human CA3 (4 to 260 residues) expressed in Escherichia coli BL21(DE3) by DSF-based fluorescence thermal shift assay.
In assay [4] the target is Carbonic anhydrase 4 (Homo sapiens, UniProt P22748). Kind of assay: Binding affinity to recombinant human CA4 by DSF-based fluorescence thermal shift assay.
Sequence of Carbonic anhydrase 4 (P22748 whole entry): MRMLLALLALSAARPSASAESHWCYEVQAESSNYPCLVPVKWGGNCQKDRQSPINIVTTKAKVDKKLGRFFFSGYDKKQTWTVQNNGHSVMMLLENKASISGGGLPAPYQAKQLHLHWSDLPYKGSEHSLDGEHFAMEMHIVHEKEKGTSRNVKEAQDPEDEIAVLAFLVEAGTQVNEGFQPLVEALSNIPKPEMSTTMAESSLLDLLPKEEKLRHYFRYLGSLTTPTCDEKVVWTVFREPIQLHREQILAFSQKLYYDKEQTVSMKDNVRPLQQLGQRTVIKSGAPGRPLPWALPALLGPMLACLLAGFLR
The target in assay [5] is Carbonic anhydrase 5B, mitochondrial (Homo sapiens, UniProt Q9Y2D0). Kind of assay: Binding affinity to recombinant full length N-terminal His6x-tagged human CA5B expressed in Escherichia coli Rosetta 2 (DE3) by DSF-based fluorescence thermal shift assay.
Sequence of Carbonic anhydrase 5B, mitochondrial (Q9Y2D0 whole entry): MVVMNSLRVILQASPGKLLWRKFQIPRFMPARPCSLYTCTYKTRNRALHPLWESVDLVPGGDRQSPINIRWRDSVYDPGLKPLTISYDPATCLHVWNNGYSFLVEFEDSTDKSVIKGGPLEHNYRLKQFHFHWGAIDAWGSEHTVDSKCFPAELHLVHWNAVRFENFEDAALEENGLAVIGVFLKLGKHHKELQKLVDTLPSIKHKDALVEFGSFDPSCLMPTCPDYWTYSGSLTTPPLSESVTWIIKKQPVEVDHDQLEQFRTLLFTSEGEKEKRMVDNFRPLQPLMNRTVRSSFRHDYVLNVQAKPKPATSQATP
Assay [6] has as its target Carbonic anhydrase 6 (Homo sapiens, UniProt P23280). Kind of assay: Binding affinity to recombinant human CA6 by DSF-based fluorescence thermal shift assay.
In assay [7] the target is Carbonic anhydrase 7 (Homo sapiens, UniProt P43166). Kind of assay: Binding affinity to recombinant human CA7 by DSF-based fluorescence thermal shift assay.
Sequence of Carbonic anhydrase 7 (P43166 whole entry): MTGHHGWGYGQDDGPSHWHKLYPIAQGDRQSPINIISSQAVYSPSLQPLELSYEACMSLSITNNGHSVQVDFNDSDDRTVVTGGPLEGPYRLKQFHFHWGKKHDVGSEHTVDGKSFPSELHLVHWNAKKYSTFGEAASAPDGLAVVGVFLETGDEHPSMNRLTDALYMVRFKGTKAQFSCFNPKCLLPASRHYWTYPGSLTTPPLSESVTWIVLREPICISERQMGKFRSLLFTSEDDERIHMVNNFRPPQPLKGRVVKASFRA
For assay [8], the target named is Carbonic anhydrase 9 (Homo sapiens, UniProt Q16790). Put plainly: Binding affinity to recombinant human CA9 by DSF-based fluorescence thermal shift assay.
Assay [9] addresses Carbonic anhydrase 12 (Homo sapiens, UniProt O43570). Kind of assay: Binding affinity to recombinant human CA12 by DSF-based fluorescence thermal shift assay.
The target in assay [10] is Carbonic anhydrase 14 (Homo sapiens, UniProt Q9ULX7). Put plainly: Binding affinity to recombinant N-terminal His6x-tagged human CA14 (20 to 280 residues) catalytic domain expressed in Escherichia coli Rosetta 2 (DE3) by DSF-based fluorescence thermal shift assay.
Sequence of Carbonic anhydrase 14 (Q9ULX7 whole entry, the tested form may be a part): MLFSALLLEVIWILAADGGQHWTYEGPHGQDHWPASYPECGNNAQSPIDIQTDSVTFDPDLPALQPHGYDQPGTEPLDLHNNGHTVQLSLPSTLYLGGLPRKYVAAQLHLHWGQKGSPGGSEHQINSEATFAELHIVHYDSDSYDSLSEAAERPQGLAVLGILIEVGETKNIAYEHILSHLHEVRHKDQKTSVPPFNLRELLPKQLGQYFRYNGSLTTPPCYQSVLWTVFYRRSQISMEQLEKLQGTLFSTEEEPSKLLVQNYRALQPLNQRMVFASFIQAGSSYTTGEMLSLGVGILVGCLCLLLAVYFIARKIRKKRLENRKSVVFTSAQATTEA
Assay [11] has as its target Carbonic anhydrase 13 (Homo sapiens, UniProt Q8N1Q1). Put plainly: Binding affinity to recombinant human CA13 by DSF-based fluorescence thermal shift assay.

Sequence of Carbonic anhydrase 6 (P23280 whole entry): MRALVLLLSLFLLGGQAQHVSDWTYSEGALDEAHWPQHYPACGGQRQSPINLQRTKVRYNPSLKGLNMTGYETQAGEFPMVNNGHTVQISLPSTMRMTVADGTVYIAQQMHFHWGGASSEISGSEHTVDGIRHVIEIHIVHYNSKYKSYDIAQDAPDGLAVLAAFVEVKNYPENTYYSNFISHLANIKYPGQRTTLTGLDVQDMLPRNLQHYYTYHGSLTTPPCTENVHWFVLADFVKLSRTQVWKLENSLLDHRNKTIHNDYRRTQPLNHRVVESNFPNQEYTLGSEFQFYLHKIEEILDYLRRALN
Sequence of Carbonic anhydrase 12 (O43570 whole entry, the tested form may be a part): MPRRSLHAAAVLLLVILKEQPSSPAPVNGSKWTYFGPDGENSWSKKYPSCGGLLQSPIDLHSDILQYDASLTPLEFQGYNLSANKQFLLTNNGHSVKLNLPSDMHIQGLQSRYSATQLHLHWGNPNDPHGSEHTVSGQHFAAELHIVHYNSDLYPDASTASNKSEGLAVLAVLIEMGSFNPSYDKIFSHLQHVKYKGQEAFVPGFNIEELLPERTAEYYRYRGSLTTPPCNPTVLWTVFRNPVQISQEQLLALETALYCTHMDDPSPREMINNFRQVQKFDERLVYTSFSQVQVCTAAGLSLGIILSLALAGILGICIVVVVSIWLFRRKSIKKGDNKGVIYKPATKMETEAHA
Sequence of Carbonic anhydrase 1 (P00915 whole entry): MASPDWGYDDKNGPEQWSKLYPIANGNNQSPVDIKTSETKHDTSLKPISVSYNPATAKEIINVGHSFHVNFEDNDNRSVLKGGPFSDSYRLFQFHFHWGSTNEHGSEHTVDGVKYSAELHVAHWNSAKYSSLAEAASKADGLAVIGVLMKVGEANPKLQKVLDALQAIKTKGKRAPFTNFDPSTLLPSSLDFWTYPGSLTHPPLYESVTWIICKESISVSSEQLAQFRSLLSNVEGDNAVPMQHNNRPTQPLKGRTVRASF
Sequence of Carbonic anhydrase 3 (P07451 whole entry, the tested form may be a part): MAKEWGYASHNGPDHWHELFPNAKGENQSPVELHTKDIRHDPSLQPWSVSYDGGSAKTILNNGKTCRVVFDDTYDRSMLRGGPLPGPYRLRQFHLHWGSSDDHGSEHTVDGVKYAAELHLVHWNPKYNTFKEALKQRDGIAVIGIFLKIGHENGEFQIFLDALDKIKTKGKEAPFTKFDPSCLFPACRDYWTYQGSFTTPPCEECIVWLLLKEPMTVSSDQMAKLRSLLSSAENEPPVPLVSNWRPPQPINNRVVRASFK
Sequence of Carbonic anhydrase 13 (Q8N1Q1 whole entry): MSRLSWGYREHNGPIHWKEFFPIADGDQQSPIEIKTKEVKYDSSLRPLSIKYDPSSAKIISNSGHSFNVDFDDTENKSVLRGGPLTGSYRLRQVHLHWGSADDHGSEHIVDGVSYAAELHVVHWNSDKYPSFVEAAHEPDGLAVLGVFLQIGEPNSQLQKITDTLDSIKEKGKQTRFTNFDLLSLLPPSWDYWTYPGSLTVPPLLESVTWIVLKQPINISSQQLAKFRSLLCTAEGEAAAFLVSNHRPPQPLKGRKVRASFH

As usually defined, the Kd is the free concentration of one partner at which half of the binding sites on the other are occupied at equilibrium, for simple one-to-one binding. In the case of `NS(=O)(=O)c1ccc(N2CC(C(=O)O)CC2=O)cc1` (stereo not given), the Kd in [1] is 4.2 µM; in [2], 0.5 µM; in assay [3], at least 200 µM; in assay [4], 2.5 µM; in assay [5], 4.7 µM; in [6] it was 6.7 µM. Also, the Kd in assay [7] turned out to be 0.46 µM; in assay [8], 0.33 µM; in assay [9] it was 2 µM; in [10], 0.72 µM.
With `Cc1c(Br)c(N2CC(C(=O)NN)CC2=O)c(Br)c(C)c1S(N)(=O)=O` (stereo not given), the dissociation constant Kd in assay [1], in [2], in [3], in assay [4], in assay [5] and in assay [6] was at least 200 µM each time. In addition, the Kd in assay [7], in assay [8], in [9] and in assay [11] was at least 200 µM throughout.
As for `Cc1c(Br)c(N2CC(C(=O)N/N=C/c3ccccc3)CC2=O)c(Br)c(C)c1S(N)(=O)=O` (stereo not given), the Kd in assay [1], in assay [2], in assay [3], in assay [4], in assay [5] and in assay [6] was at least 200 µM throughout. The Kd in assay [7], in assay [8], in [9] and in assay [11] was at least 200 µM in each case.
On to `Cc1cc(N2CC(C(=O)N/N=C/c3ccc(Br)cc3)CC2=O)cc(C)c1S(N)(=O)=O` (stereo not given), for which the Kd is 2.5 µM in assay [1]; 2.9 µM in [2]; at least 200 µM in assay [3]; 20 µM in assay [4]; 0.63 µM in assay [5]; 18 µM in assay [6]. For the same compound, the Kd is 37 µM in [7], 2.5 µM in assay [8], 33 µM in assay [9] and 33 µM in assay [11].
In the case of `Cc1cc(N2CC(C(=O)NN)CC2=O)c(Cl)c(C)c1S(N)(=O)=O` (stereo not given), the Kd was 2.5 µM in [1]; 0.14 µM in [2]; at least 200 µM in assay [3]; 0.5 µM in assay [4]; 0.14 µM in assay [5]; 4.8 µM in assay [6]. Also, the Kd was determined as 0.1 µM in [7], 0.33 µM in assay [8], 0.2 µM in assay [11] and 0.04 µM in assay [10].
In the case of `Cc1cc(N2CC(C(=O)O)CC2=O)cc(C)c1S(=O)(=O)Cl` (stereo not given), the dissociation constant (Kd) in assay [1], in assay [2], in assay [3], in [4], in assay [5] and in assay [6] was at least 200 µM each time. Besides, the Kd in [7], in assay [8], in assay [9] and in [11] was at least 200 µM in each case.
As to `Cc1cc(C)n(NC(=O)C2CC(=O)N(c3cc(C)c(S(N)(=O)=O)c(C)c3)C2)n1` (stereo not given), the Kd in assay [1] is 2.9 µM; in [2] it was 2 µM; in assay [3], at least 200 µM; in assay [4] it was 2 µM; in assay [5] it was 0.5 µM; in assay [6] it was 29 µM. Further, the Kd in assay [7] amounted to 33 µM; in assay [8], 2 µM; in [9], 67 µM; in [11], 8.3 µM.
As to `NS(=O)(=O)c1ccc(NC(=O)C2CC(=O)N(c3cccc(Br)c3)C2)cc1` (stereo not given), the Kd in assay [1] was 0.31 µM; in assay [2], 0.19 µM; in [3], at least 200 µM; in assay [4] it was 0.81 µM; in [5], 0.74 µM; in assay [6] it was 2.4 µM. Besides, the Kd in [7] worked out at 0.17 µM; in [8], 0.056 µM; in [9], 10 µM; in assay [11], 1.1 µM.
In the case of `NS(=O)(=O)c1ccc(NC(=O)C2CC(=O)N(c3ccccc3Br)C2)cc1` (stereo not given), the Kd in assay [1] is 0.21 µM; in assay [2] it was 0.087 µM; in assay [3] it was at least 200 µM; in assay [4], 0.4 µM; in assay [5] it was 0.19 µM; in assay [6], 3.7 µM. Also, the Kd in assay [7] turned out to be 0.051 µM; in assay [8] it was 0.038 µM; in assay [9], 3.5 µM; in assay [11] it was 0.2 µM.
Consider `Cc1cc(N2CC(C(=O)N/N=C/c3ccc(Cl)cc3)CC2=O)cc(C)c1S(N)(=O)=O` (stereo not given), for which the Kd in assay [1] was 1.7 µM; in [2] it was 2 µM; in assay [3], at least 200 µM; in assay [4], 18 µM; in assay [5], 0.67 µM; in assay [6] it was 14 µM. The Kd in [7] was at least 200 µM; in [8], 3.3 µM; in [9] it was at least 200 µM; in [11] it was at least 200 µM.
Take `Cc1cc(N2CC(C(=O)N/N=C/c3ccc([N+](=O)[O-])cc3)CC2=O)cc(C)c1S(N)(=O)=O` (stereo not given): the Kd in assay [1] is 1 µM; in assay [2] it was 1.7 µM; in assay [3], at least 200 µM; in assay [4] it was 4.7 µM; in [5], 0.4 µM; in [6], 10 µM. In addition, the Kd turned out to be 33 µM in [7], 2 µM in [8], 22 µM in [9] and 17 µM in assay [11].
For the compound `Cc1cc(N2CC(c3n[nH]c(=S)o3)CC2=O)cc(C)c1S(N)(=O)=O` (stereo not given), the Kd is 10 µM in [1]; 7.7 µM in assay [2]; at least 200 µM in assay [3]; 6.9 µM in [4]; 2 µM in [5]; 50 µM in assay [6]. Further, the Kd in assay [7] was 20 µM; in assay [8], 3.3 µM; in [9] it was at least 200 µM; in assay [11] it was at least 200 µM.
In the case of `Cc1cc(N2CC(C(=O)N/N=C/c3ccc([N+](=O)[O-])cc3)CC2=O)c(Cl)c(C)c1S(N)(=O)=O` (stereo not given), the Kd was 0.33 µM in [1]; 0.05 µM in assay [2]; at least 200 µM in assay [3]; 0.48 µM in assay [4]; 0.018 µM in assay [5]; 0.81 µM in assay [6]. Further, the Kd in [7] was 0.043 µM; in assay [8] it was 0.1 µM; in assay [9], 1.4 µM; in [11], 0.056 µM.
For `Cc1cc(N2CC(C(=O)NN3CC(C(=O)O)CC3=O)CC2=O)cc(C)c1S(N)(=O)=O` (stereo not given), the dissociation constant (Kd) in assay [1] is 13 µM; in assay [2] it was 7.1 µM; in assay [3] it was at least 200 µM; in [4], 9.1 µM; in assay [5], 7.7 µM; in assay [6], 83 µM. For the same compound, the dissociation constant Kd in assay [7] was found to be 33 µM; in assay [8], 4 µM; in assay [9], 22 µM; in assay [11], 6.7 µM.
In the case of `Cc1cc(N2CC(C(=O)N/N=C/c3ccc(Cl)cc3)CC2=O)c(Cl)c(C)c1S(N)(=O)=O` (stereo not given), the Kd in assay [1] is 0.67 µM; in assay [2] it was 0.1 µM; in assay [3], at least 200 µM; in assay [4] it was 0.51 µM; in [5], 0.0038 µM; in [6] it was 0.65 µM. Further, the Kd was 0.035 µM in assay [7], 0.091 µM in assay [8], 2 µM in [9] and 0.2 µM in assay [11].
Turning to `Cc1cc(C)cc(N2CC(C(=O)O)CC2=O)c1` (stereo not given), the Kd in assay [1], in assay [2], in assay [3], in [4], in assay [5] and in assay [6] was at least 200 µM throughout. For the same compound, the Kd in assay [7], in [8], in assay [9] and in [11] was at least 200 µM throughout.
